In patent US6586389B1, “Cubilin protein, DNA sequences encoding cubilin and uses thereof” (Administrators of the Tulane Educational Fund, priority 1998, dated 2003):
pKd: −log10 of the molar value.

Legend:
Cubilin [1] = molecular target: T1, Cubilin (Rattus norvegicus, UniProt O70244); assay: Ligands for cubilin: competition with known ligands; format: binding; settings: RAP vs IF-B12; haptoglobin vs light chains; gentamicin vs light chain
Rabbit megalin = assay: Megalin-cubilin interaction analysis by surface plasmon resonance; format: binding
Experimental: Rabbit megalin was immobilized to a sensor chip and the on rates and off rates for the binding of cubilin was recorded by flow of 20 nM purified cubilin along the chip surface. For control, cubilin was subjected to a blank chip. […] The binding curves in the presence of 10 mM EDTA or after prebinding of RAP to megalin are also shown. […] By fitting the binding data to a one-binding-site model a Kd of 7 nM was measured.
Surface plasmon resonance measurements were performed on a BIAcore 2000 instrument (Pharmacia, Sweden). BIAcore sensor chips (type CM5, Pharmacia) were activated with 1:1 mixture of 0.2 M N-ethyl-N′-(3-dimethylaminopropyl) carbodiimide and 0.05 M N-hydroxysuccimine in water. Rabbit megalin was immobilized as described (Moestrup et al., 1996) at a concentration of 40 μg/ml in 10 mM sodium acetate, pH 4.5 and the remaining binding sites were blocked with 1 M ethanolamine, pH 8.5. The flow buffer was 10 mM Hepes, 150 mM NaCl and […], 1 mM EDTA, pH 7.4. The binding data were analyzed using the BIAevaluation program.
Bound radiolabel was released from the column by EDTA. Surface plasmon analysis (FIG. 10A) confirmed this binding. […] Megalin-bound cubilin was still capable of binding IF-B12 as shown by subjecting the megalin-chip to flow with IF-B12 after the binding of cubilin (FIG. 10B). Thus, the response after adding IF-B12 represents the formation of a megalin-cubilin-IF-B12 complex.

[2] = system: renal brush border membrane; settings: cited from earlier work
[3] = system: rat renal cortical intermicrovillar clefts; assay: Endosomal fusion reconstituted in vitro (energy transfer); format: biochemical; parameters: dose or concentration left out as unconfirmed; settings: membranes loaded with λ-light chains via homogenization buffer; n=8
From the text: The λ_light chains were loaded into rat renal cortical intermicrovillar cleft at […] by addition to the homogenization buffer. Fusion reconstituted in vitro in light chain-loaded membranes was inhibited compared with albumin-loaded control membranes. Values are mean±standard error for n=8, p<0.05 by unpaired t-test.
Fusion of these light chain loaded membranes was compared to control membranes loaded with the same concentration of albumin. All fluorescence measurements were corrected per mg of protein, and fusion reconstituted in vitro in cuvettes (Hammond et al., 1994). Data are expressed as mean +standard error of the mean throughout the application. Statistical analysis was performed by analysis of variance and Bonferroni or Scheffe's post hoc comparison.
To test whether myeloma light chains are functionally important in membrane trafficking and fusion events, intermicrovillar clefts were loaded with light chains by adding it to the homogenization buffer (Hammond et al., 1994). Fusion reconstituted in vitro in cuvettes was assayed by energy transfer, and results were normalized per milligram protein (Hammond et al., 1994; Jo et al., 1995).

[4] = system: yolk sac epithelial cells (BN/MSV); assay: Endocytosis of FITC-light chain by yolk sac cells; format: cell-based, rat; settings: 30 min, FIG. 14A; antibody at 1:1,000 dilution
Experimental: The yolk sac epithelial cell line (BN/MSV) was derived from yolk sac teratocarcinoma induced by fetectomy and placental injection of mouse sarcoma virus (Sahali et al., 1988). When grown under conventional conditions in modified Eagle's medium, supplemented with 2.5 mM L-glutamine, 10% fetal calf serum, and an antibiotic cocktail (penicillin, streptomycin, and Fungizone), the cells form a domed monolayer and express abundant cubilin (Sahali et al., 1988).
Internalization experiments were conducted by exposing confluent yolk sac cells in 24-cell plates to […] FITC-conjugated light chain. These cells were selected for endocytosis experiments because cubilin expression is 100-fold greater than cultured proximal tubule cells (Sahali et al., 1988). […] This concentration is selected because it is 10-fold higher than the half-maximal inhibitory concentration of the antibody determined from the brush border binding inhibition experiments. […] Cells are then trypsininzed, fixed in 1% formaldehyde, and suspended in PBS, and FITC incorporated into each cell is read in a Becton-Dickinson flow cytometer as described previously. Endocytosis curves are generated by plotting fluorescence units corrected for background against time. […]

Cubilin [5] = molecular target: T1, Cubilin; assay: Surface plasmon resonance analysis of light chain/cubilin interaction; format: binding; parameters: from tissue; host or cells: rat renal cortex (intermicrovillar clefts); settings: cubilin 100 nM preincubated with κ-light chains (10 or 490 μM) or λ-light chains (10 μM)
Experimental: A sample of cubilin (100 nM) was incubated with κ-light chains (10 or 490 μM), or […] prior to injecting the sample over the κ-light chain surface. The binding of cubilin to the immobilized surfaces was reduced in the presence of κ- or λ-light chains in a dose-response fashion. Data are representative of experiments with 4 light chains on 3 chips. […] LC, light chains: RU, response units.
Intermicrovillar clefts prepared from renal cortices were biotinylated on the cytosolic facade using NHS-biotin (Winearls, 1995). Cubilin and the associated proteins were purified by immunoaffinity chromatography MAb 75 was coupled to CNBr-activated Sepharose 4B (Pharmacia, Saint Quentin en Yvelines, France) as previously described (Sahali et al., 1988; 1993). Protease inhibitors were added at all steps.
κ- or λ-light chains were immobilized via free amine groups to the dextran matrix of CM5 sensor chips activated by a 1/1 mixture of NHS and EDC. Unreacted sites were blocked with 1M ethanolamine, pH 8.5, (Jonsson et al., 1991; Sanders et al., 1988). The immobilization was conducted at 25° C. using 10 mM HEPES, 2 mM CaCl2, 150 mM NaCl, 0.005% NP-40, pH 7.4 as the flow buffer. Then 10 mM acetate pH 4.8 was used for electrostatic pre-concentration of the protein. […]

rabbit megalin (rabbit) [6] = assay: SPR (BIAcore 2000), rabbit megalin immobilized, 20 nM purified cubilin in flow, blank chip subtracted, one-binding-site fit
rabbit megalin (rabbit) [7] = assay: SPR, RAP prebound to immobilized rabbit megalin; competitor cubilin in flow
[8] = molecular target: megalin in native membranes (rat renal brush-border membrane vesicles; rat yolk sac cells) (rat) (UniProt P98158); assay: cell-based or functional assay
[9] = system: rat renal brush border membrane vesicles; assay: Gentamicin competition with fluorescein-light chain binding to brush border membrane vesicles (flow cytometry); settings: control 39.6±4.2, n=4
Experimental: Given the abundance of megalin on the renal brush border membrane, if megalin is a light chain receptor this would predict that small polybasic drugs, such as gentamicin, which are known ligands for megalin, should compete for light chain binding to renal brush border membrane vesicles. To test this, rat renal brush border membrane vesicles were incubated in fluorescein-conjugated light chains with various concentrations of gentamicin. After washing, fluorescein-light chain binding to the membranes was analyzed by flow cytometry (FIG. 16). Estimate of half maximal binding concentration of gentamicin between 60 and 70 μM was placed in the middle of the curve. Gentamicin competes with fluorescent light chain binding to renal brush border membranes in a dose-dependent manner (control FITC-light chain binding 39.6±4.2 arbitrary fluorescence units, 10 μM gentamicin 45.1±3.1, 100 μM gentamicin 8.9±33.8*, 1000 μM gentamicin 6.3±1.9*, n=4, *p<0.05).

RAP (Receptor related protein) (ligand), sequence (P30533 35-357): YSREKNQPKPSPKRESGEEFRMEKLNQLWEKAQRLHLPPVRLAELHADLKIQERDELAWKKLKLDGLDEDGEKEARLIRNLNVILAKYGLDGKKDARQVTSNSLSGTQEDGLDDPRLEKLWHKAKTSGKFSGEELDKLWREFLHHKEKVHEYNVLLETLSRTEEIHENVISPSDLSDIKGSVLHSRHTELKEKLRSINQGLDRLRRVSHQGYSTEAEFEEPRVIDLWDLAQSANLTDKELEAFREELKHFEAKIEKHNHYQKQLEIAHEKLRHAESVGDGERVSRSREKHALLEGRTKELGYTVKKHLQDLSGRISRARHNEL
T1 sequence (O70244 33-3623): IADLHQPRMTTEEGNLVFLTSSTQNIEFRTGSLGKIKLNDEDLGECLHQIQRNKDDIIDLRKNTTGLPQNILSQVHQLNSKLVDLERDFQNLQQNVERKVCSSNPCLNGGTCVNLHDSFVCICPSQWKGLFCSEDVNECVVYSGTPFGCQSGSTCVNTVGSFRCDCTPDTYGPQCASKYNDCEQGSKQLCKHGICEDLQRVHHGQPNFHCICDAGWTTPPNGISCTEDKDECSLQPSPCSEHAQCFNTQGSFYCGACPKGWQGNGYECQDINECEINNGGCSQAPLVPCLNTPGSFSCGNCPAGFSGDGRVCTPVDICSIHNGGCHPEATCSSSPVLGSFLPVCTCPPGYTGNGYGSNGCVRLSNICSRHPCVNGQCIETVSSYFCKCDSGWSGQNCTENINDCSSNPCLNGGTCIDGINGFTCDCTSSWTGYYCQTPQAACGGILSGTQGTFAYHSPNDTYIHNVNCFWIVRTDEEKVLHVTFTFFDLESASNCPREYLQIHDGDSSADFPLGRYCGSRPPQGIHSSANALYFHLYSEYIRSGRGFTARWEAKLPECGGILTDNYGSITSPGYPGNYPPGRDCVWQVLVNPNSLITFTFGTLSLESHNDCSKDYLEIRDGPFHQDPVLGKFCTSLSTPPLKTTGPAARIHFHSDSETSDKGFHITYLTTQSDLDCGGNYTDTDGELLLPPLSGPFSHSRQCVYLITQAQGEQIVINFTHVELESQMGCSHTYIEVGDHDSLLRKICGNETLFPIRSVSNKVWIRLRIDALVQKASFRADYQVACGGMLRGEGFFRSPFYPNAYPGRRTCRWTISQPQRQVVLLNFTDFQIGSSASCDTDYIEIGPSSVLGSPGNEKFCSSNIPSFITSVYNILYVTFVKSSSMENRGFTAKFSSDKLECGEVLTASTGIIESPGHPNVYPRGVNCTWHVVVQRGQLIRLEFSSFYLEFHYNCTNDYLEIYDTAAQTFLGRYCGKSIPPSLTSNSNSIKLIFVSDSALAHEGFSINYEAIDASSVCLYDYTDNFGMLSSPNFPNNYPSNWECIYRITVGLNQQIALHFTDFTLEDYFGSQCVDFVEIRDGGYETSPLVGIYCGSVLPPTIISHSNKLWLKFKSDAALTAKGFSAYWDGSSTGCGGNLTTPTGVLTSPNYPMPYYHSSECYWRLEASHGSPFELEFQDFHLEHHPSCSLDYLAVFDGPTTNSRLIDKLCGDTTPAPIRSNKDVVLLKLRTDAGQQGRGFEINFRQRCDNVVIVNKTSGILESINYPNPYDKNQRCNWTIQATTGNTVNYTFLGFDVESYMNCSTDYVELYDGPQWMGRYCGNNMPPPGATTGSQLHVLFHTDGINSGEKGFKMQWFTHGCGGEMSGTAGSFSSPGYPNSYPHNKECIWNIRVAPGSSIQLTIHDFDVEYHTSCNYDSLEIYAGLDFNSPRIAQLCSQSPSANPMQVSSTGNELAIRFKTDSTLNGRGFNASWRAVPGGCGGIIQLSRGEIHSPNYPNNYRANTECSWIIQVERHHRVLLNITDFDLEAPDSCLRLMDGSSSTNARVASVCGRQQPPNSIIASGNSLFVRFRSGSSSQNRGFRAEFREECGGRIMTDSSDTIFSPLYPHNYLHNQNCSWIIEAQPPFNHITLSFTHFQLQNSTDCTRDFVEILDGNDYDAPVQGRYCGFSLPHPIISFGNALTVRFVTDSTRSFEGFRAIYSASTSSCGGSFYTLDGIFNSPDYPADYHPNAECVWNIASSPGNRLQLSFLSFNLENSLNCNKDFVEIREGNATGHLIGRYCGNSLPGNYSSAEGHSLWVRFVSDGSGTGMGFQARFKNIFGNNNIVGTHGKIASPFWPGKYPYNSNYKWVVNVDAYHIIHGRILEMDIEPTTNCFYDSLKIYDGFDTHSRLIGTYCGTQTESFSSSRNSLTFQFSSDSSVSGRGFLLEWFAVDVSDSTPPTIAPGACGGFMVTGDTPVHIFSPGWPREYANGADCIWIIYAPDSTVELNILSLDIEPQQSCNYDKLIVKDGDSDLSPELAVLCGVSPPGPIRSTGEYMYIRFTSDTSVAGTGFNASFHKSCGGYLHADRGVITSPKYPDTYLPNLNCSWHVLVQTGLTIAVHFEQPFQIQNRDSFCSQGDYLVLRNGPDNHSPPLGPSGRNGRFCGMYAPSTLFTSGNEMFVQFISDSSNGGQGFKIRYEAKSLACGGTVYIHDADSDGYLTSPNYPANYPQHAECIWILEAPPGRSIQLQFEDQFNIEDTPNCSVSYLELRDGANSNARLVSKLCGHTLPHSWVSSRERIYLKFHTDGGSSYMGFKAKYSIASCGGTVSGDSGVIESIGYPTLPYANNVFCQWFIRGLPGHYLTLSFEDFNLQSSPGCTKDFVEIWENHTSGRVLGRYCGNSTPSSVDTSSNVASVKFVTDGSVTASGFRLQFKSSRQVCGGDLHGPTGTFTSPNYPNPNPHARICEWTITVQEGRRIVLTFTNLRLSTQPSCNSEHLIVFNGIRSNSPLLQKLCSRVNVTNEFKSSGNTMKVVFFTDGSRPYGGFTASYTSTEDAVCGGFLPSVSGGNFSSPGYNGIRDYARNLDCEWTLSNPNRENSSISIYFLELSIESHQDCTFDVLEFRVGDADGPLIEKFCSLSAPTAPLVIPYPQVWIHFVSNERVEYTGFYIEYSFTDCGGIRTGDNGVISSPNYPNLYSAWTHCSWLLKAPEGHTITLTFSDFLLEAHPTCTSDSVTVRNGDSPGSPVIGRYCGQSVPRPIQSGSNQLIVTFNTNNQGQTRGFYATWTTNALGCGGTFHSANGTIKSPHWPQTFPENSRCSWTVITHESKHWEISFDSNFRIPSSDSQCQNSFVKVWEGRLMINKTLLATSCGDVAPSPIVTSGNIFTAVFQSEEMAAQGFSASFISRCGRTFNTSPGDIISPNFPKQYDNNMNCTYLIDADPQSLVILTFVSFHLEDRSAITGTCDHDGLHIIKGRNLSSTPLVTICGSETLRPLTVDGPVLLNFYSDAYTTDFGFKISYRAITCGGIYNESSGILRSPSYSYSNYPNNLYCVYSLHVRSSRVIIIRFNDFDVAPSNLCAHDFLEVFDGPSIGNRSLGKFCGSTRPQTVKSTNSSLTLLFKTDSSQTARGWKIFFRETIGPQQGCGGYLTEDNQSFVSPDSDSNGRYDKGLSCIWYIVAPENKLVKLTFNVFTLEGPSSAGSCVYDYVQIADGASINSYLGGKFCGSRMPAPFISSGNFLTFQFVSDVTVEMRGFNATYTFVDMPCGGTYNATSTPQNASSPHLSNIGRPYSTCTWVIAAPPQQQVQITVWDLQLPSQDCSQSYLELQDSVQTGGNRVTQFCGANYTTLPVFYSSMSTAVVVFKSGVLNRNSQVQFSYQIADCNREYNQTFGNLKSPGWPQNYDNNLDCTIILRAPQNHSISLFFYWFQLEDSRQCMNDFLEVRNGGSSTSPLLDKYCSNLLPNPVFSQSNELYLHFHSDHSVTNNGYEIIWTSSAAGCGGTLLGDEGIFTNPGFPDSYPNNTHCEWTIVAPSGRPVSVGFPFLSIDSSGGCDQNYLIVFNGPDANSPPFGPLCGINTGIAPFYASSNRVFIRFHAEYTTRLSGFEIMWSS
cubilin (purified; species of origin not stated where used) (receptor), sequence (O70244 33-3623): as above

RAP: Receptor related protein; binds megalin and cubilin
Competition between ligands for binding to cubilin (Cubilin [1]): does not inhibit
Reduction of binding of cubilin to megalin (Rabbit megalin; RAP prebound to megalin): 75%

cubilin: 460 kDa epithelial glycoprotein receptor for intrinsic factor-vitamin B12 complexes; rat sequence SEQ ID No. 2
pKd (Rabbit megalin; binding data fitted to a one-binding-site model, 20 nM purified cubilin over immobilized rabbit megalin): 8.15

myoglobin
Competition with light chain for brush border membrane binding [2]: competing

albumin: bovine serum albumin used as nonspecific protein control
Endosomal fusion [3]: 1584±314 arbitrary fluorescence units/mg protein
Effect on FITC-light chain endocytosis [4]: no effect
Effect of free protein on binding of cubilin to immobilized light chains (competition) (Cubilin [5]): neither competed with light chains, nor bound to cubilin

Intrinsic factor vitamin B12: intrinsic factor-vitamin B12 complexes
Binding to megalin (control experiments) (Rabbit megalin; megalin chip): no binding

lysozyme
Competition with light chain for brush border membrane binding [2]: competing

cubilin (purified; species of origin not stated where used) (receptor)
pKd (rabbit megalin (rabbit) [6]): 8.15

RAP (Receptor related protein) (ligand)
reduction of cubilin binding to megalin (rabbit megalin (rabbit) [7]): 75%
reduction of endocytosis of 125I-IF-B12 in cultured yolk sac cell [8]: 10 to 15%

haptoglobin: protein ligand for cubilin
Competition between ligands for binding to cubilin (Cubilin [1]): do not compete

cytochrome c: low molecular weight protein competing with light chain
Competition with light chain for brush border membrane binding [2]: competing

gentamicin
FITC-light chain binding ([9]; 10 μM gentamicin): 45.1±3.1 arbitrary fluorescence units
FITC-light chain binding ([9]; 100 μM gentamicin): 8.9±33.8 arbitrary fluorescence units
FITC-light chain binding ([9]; 1000 μM gentamicin): 6.3±1.9 arbitrary fluorescence units
Competition between ligands for binding to cubilin (Cubilin [1]): directly interferes
